System: MV-4-11 cells
Test: Gene expression microarray analysis (Affymetrix PrimeView) and GSEA
Format: cell-based, human
Set-up: RFU PODN (11730768_x_at) / Fold change /veh PODN (11730768_x_at) / RFU LINC00158 (11744669_a_at) / Fold change /veh LINC00158 (11744669_a_at) / RFU DUSP10 (11751237_a_at) / Fold change /veh DUSP10 (11751237_a_at) / RFU ID3 (11757404_x_at) / Fold change /veh ID3 (11757404_x_at) / RFU PLEKHG5 (11737974_s_at) / Fold change /veh PLEKHG5 (11737974_s_at) / RFU LRRC4B (11730491_at) / Fold change /veh LRRC4B (11730491_at) / RFU GIMAP4 (11747438_a_at) / Fold change /veh GIMAP4 (11747438_a_at) / RFU KRT8 (11758183_x_at) / Fold change /veh KRT8 (11758183_x_at) / RFU CNN1 (11734310_a_at) / Fold change /veh CNN1 (11734310_a_at) / RFU VPS37D (11726825_at) / Fold change /veh VPS37D (11726825_at) / RFU C10orf10 (11716522_x_at) / Fold change /veh C10orf10 (11716522_x_at) / RFU KIR2DL2 /// KIR2DL4 /// KIR2DL5A /// KIR2DL5B /// KIR2DS1 /// KIR2DS2 /// KIR2DS3 /// KIR2DS4 /// KIR3DL3 /// KIR3DL3 /// KIR3DS1 (11738374_at) / Fold change /veh KIR2DL2 /// KIR2DL4 /// KIR2DL5A /// KIR2DL5B /// KIR2DS1 /// KIR2DS2 /// KIR2DS3 /// KIR2DS4 /// KIR3DL3 /// KIR3DL3 /// KIR3DS1 (11738374_at) / RFU C1QL1 (11718748_at) / Fold change /veh C1QL1 (11718748_at) / RFU TMPRSS4 (11747572_a_at) / Fold change /veh TMPRSS4 (11747572_a_at) / RFU HAMP (11756126_x_at) / Fold change /veh HAMP (11756126_x_at) / RFU RNFT2 (11725882_a_at) / Fold change /veh RNFT2 (11725882_a_at) / RFU NR4A2 (11747474_a_at) / Fold change /veh NR4A2 (11747474_a_at) / RFU ABCC12 (11746883_a_at) / Fold change /veh ABCC12 (11746883_a_at) / RFU TMEM136 (11760407_x_at) / Fold change /veh TMEM136 (11760407_x_at) / RFU CLDN22 /// WWC2 (11732394_at) / Fold change /veh CLDN22 /// WWC2 (11732394_at) / RFU HLA-DPB1 (11760878_x_at) / Fold change /veh HLA-DPB1 (11760878_x_at) / RFU SPINT1 (11716480_a_at) / Fold change /veh SPINT1 (11716480_a_at) / RFU GAP43 (11754022_s_at) / Fold change /veh GAP43 (11754022_s_at) / RFU A4GNT (11735810_at) / Fold change /veh A4GNT (11735810_at) / RFU PRB3 (11715151_x_at) / Fold change /veh PRB3 (11715151_x_at) / RFU TUBB4B (11761932_at) / Fold change /veh TUBB4B (11761932_at) / RFU CAPN14 (11732068_a_at) / Fold change /veh CAPN14 (11732068_a_at) / RFU TMCC2 (11721928_a_at) / Fold change /veh TMCC2 (11721928_a_at) / RFU IRGQ (11745062_a_at) / Fold change /veh IRGQ (11745062_a_at) / RFU FAM174B (11720279_a_at) / Fold change /veh FAM174B (11720279_a_at) / RFU TMPRSS4 (11748680_a_at) / Fold change /veh TMPRSS4 (11748680_a_at) / RFU FAM212B (11763350_a_at) / Fold change /veh FAM212B (11763350_a_at) / RFU PLEKHG5 (11743358_a_at) / Fold change /veh PLEKHG5 (11743358_a_at) / RFU ZSCAN30 (11745921_a_at) / Fold change /veh ZSCAN30 (11745921_a_at) / RFU CMKLR1 (11741424_a_at) / Fold change /veh CMKLR1 (11741424_a_at) / RFU LOC101060620 /// MAPK8IP1 (11723275_at) / Fold change /veh LOC101060620 /// MAPK8IP1 (11723275_at) / RFU SPTSSB (11747773_x_at) / Fold change /veh SPTSSB (11747773_x_at) / RFU PRSS12 (11739890_at) / Fold change /veh PRSS12 (11739890_at) / RFU BIN1 (11741810_x_at) / Fold change /veh BIN1 (11741810_x_at) / RFU WNT11 (11732464_a_at) / Fold change /veh WNT11 (11732464_a_at) / RFU C10orf10 (11716521_a_at) / Fold change /veh C10orf10 (11716521_a_at) / RFU C5orf56 (11738089_at) / Fold change /veh C5orf56 (11738089_at) / RFU CYB561 (11721691_x_at) / Fold change /veh CYB561 (11721691_x_at) / RFU ANKRD19P (11752326_a_at) / Fold change /veh ANKRD19P (11752326_a_at) / RFU OR2T12 /// OR2T33 /// OR2T8 (11738714_s_at) / Fold change /veh OR2T12 /// OR2T33 /// OR2T8 (11738714_s_at) / RFU VCAN (11748164_a_at) / Fold change /veh VCAN (11748164_a_at) / RFU JSRP1 (11732532_at) / Fold change /veh JSRP1 (11732532_at) / RFU KRTAP10-11 (11738290_x_at) / Fold change /veh KRTAP10-11 (11738290_x_at) / RFU MYO3A (11730013_a_at) / Fold change /veh MYO3A (11730013_a_at) / RFU EBF3 (11725865_a_at) / Fold change /veh EBF3 (11725865_a_at) / RFU CAMK2N1 (11719241_x_at) / Fold change /veh CAMK2N1 (11719241_x_at) / RFU C5orf56 (11738088_a_at) / Fold change /veh C5orf56 (11738088_a_at) / RFU OLFML3 (11715873_a_at) / Fold change /veh OLFML3 (11715873_a_at) / RFU LOC100653217 /// NTM (11731650_a_at) / Fold change /veh LOC100653217 /// NTM (11731650_a_at) / RFU MAPK11 (11762145_a_at) / Fold change /veh MAPK11 (11762145_a_at) / RFU FIZ1 (11724087_x_at) / Fold change /veh FIZ1 (11724087_x_at) / RFU OASL (11726364_x_at) / Fold change /veh OASL (11726364_x_at) / RFU SOX15 (11748057_x_at) / Fold change /veh SOX15 (11748057_x_at) / RFU CD79A (11719716_a_at) / Fold change /veh CD79A (11719716_a_at) / RFU HIST1H1D (11736915_at) / Fold change /veh HIST1H1D (11736915_at) / RFU CASKIN2 (11723855_a_at) / Fold change /veh CASKIN2 (11723855_a_at) / RFU LOC730098 (11760151_x_at) / Fold change /veh LOC730098 (11760151_x_at) / RFU OR4N2 (11742367_at) / Fold change /veh OR4N2 (11742367_at) / RFU PRRT2 (11749266_a_at) / Fold change /veh PRRT2 (11749266_a_at) / RFU SNX32 (11753110_a_at) / Fold change /veh SNX32 (11753110_a_at) / RFU CDHR5 (11726645_a_at) / Fold change /veh CDHR5 (11726645_a_at) / RFU RCAN1 (11760418_a_at) / Fold change /veh RCAN1 (11760418_a_at) / RFU FAM167A (11723789_a_at) / Fold change /veh FAM167A (11723789_a_at) / RFU FAM26E (11764081_at) / Fold change /veh FAM26E (11764081_at) / RFU ISYNA1 (11749810_s_at) / Fold change /veh ISYNA1 (11749810_s_at) / RFU ACY1 (11761880_at) / Fold change /veh ACY1 (11761880_at) / RFU 11764098_at / Fold change /veh 11764098_at / RFU SAMD14 (11745864_x_at) / Fold change /veh SAMD14 (11745864_x_at) / RFU NPB (11741838_a_at) / Fold change /veh NPB (11741838_a_at) / RFU TMPRSS6 (11731388_a_at) / Fold change /veh TMPRSS6 (11731388_a_at) / RFU KRTAP10-2 (11738614_at) / Fold change /veh KRTAP10-2 (11738614_at) / RFU ARHGAP8 /// PRR5-ARHGAP8 (11727945_x_at) / Fold change /veh ARHGAP8 /// PRR5-ARHGAP8 (11727945_x_at) / RFU KRTAP5-7 /// NADSYN1 (11734609_at) / Fold change /veh KRTAP5-7 /// NADSYN1 (11734609_at) / RFU RASL12 (11751679_a_at) / Fold change /veh RASL12 (11751679_a_at) / RFU CDKN2B (11736163_a_at) / Fold change /veh CDKN2B (11736163_a_at) / RFU PRF1 (11729649_at) / Fold change /veh PRF1 (11729649_at) / RFU, ZNF638 /// ZNF638-IT1 / Fold change vs veh, ZNF638 /// ZNF638-IT1 / RFU, PANK3 / Fold change vs veh, PANK3 / RFU, SH3YL1 / Fold change vs veh, SH3YL1 / RFU, ZEB2 / Fold change vs veh, ZEB2 / RFU, NRIP1 / Fold change vs veh, NRIP1 / RFU, PTTG1IP / Fold change vs veh, PTTG1IP / RFU, CAPN2 / Fold change vs veh, CAPN2 / RFU, MED14 / Fold change vs veh, MED14 / RFU, SNORA58 / Fold change vs veh, SNORA58 / RFU, C1orf63 / Fold change vs veh, C1orf63 / RFU, LRRFIP1 / Fold change vs veh, LRRFIP1 / RFU, NDUFAF7 / Fold change vs veh, NDUFAF7 / RFU, SLC12A2 / Fold change vs veh, SLC12A2 / RFU, IBTK / Fold change vs veh, IBTK / RFU, ESF1 / Fold change vs veh, ESF1 / Fold change vs veh, TMEM50B / RFU, TAOK1 / Fold change vs veh, TAOK1 / RFU, ACBD3 / Fold change vs veh, ACBD3 / RFU, TMA16 / Fold change vs veh, TMA16 / RFU, RWDD3 / Fold change vs veh, RWDD3 / RFU, BCAT1 / Fold change vs veh, BCAT1 / RFU, EDEM3 / Fold change vs veh, EDEM3 / RFU, TMEM33 / Fold change vs veh, TMEM33 / RFU, WDR75 / Fold change vs veh, WDR75 / RFU, AHCTF1 / Fold change vs veh, AHCTF1 / RFU, TFRC / Fold change vs veh, TFRC / RFU, ZDHHC17 / Fold change vs veh, ZDHHC17 / RFU, NOM1 / Fold change vs veh, NOM1 / RFU, ARL8B / Fold change vs veh, ARL8B / RFU, ZBTB11 / Fold change vs veh, ZBTB11 / RFU, TAMM41 / Fold change vs veh, TAMM41 / RFU, KIAA1704 /// LOC100996395 / Fold change vs veh, KIAA1704 /// LOC100996395 / RFU, ING1 / Fold change vs veh, ING1 / RFU, TRMT61B / Fold change vs veh, TRMT61B / RFU, FUBP3 / Fold change vs veh, FUBP3 / RFU, TP53 / Fold change vs veh, TP53 / RFU, TNKS2 / Fold change vs veh, TNKS2 / RFU, ZFP14 / Fold change vs veh, ZFP14 / RFU, ACTR2 / Fold change vs veh, ACTR2 / RFU, PPP3R1 / Fold change vs veh, PPP3R1 / RFU, PIK3R1 / Fold change vs veh, PIK3R1 / RFU, HNRNPA1 / Fold change vs veh, HNRNPA1 / RFU, RNF170 / Fold change vs veh, RNF170 / RFU, ZNF28 / Fold change vs veh, ZNF28 / RFU, RNGTT / Fold change vs veh, RNGTT / RFU, OGT / Fold change vs veh, OGT / RFU, BRD1 / Fold change vs veh, BRD1 / RFU, MARS / Fold change vs veh, MARS / RFU, ZNF655 / Fold change vs veh, ZNF655 / RFU, FAHD1 / Fold change vs veh, FAHD1 / RFU, BDP1 / Fold change vs veh, BDP1 / RFU, LRRCC1 / Fold change vs veh, LRRCC1 / RFU, ARID1A / Fold change vs veh, ARID1A / RFU, ZNF146 / Fold change vs veh, ZNF146 / RFU, ZNF330 / Fold change vs veh, ZNF330 / RFU, GPN3 / Fold change vs veh, GPN3 / RFU, C9orf123 / Fold change vs veh, C9orf123 / RFU, N4BP2L2 / Fold change vs veh, N4BP2L2 / RFU, ARFIP1 / Fold change vs veh, ARFIP1 / RFU, FAM179B / Fold change vs veh, FAM179B / RFU, BCL10 / Fold change vs veh, BCL10 / RFU, UHRF1BP1L / Fold change vs veh, UHRF1BP1L / RFU, BET1 / Fold change vs veh, BET1 / RFU, CNOT2 / Fold change vs veh, CNOT2 / RFU, ZNF268 / Fold change vs veh, ZNF268 / Fold change vs veh, ZNF507 / RFU, DGCR2 / Fold change vs veh, DGCR2 / RFU, WDSUB1 / Fold change vs veh, WDSUB1 / Fold change vs veh, HSP90B1 /// MIR3652 / RFU, ADSS / Fold change vs veh, ADSS / RFU, GK / Fold change vs veh, GK / RFU, ZNF148 / Fold change vs veh, ZNF148 / RFU, TAF9 / Fold change vs veh, TAF9 / RFU, SLC1A5 / Fold change vs veh, SLC1A5 / RFU, SLMO2 / Fold change vs veh, SLMO2 / RFU, ABCC4 / Fold change vs veh, ABCC4 / RFU, LOC101060439 /// RAP1B / Fold change vs veh, LOC101060439 /// RAP1B / RFU, RFX7 / Fold change vs veh, RFX7 / RFU, GTPBP10 / Fold change vs veh, GTPBP10 / RFU, CNEP1R1 / Fold change vs veh, CNEP1R1 / RFU, BIVM-ERCC5 /// ERCC5 / Fold change vs veh, BIVM-ERCC5 /// ERCC5 / RFU, ILF3 / Fold change vs veh, ILF3 / RFU 11762660_at / Fold change /veh 11762660_at / RFU VCAN (11757783_s_at) / Fold change /veh VCAN (11757783_s_at) / RFU DDX43 (11728927_at) / Fold change /veh DDX43 (11728927_at) / RFU KRT8 (11758188_x_at) / Fold change /veh KRT8 (11758188_x_at) / RFU NKD1 (11759106_at) / Fold change /veh NKD1 (11759106_at) / RFU SRD5A1 (11742802_a_at) / Fold change /veh SRD5A1 (11742802_a_at) / RFU TPSAB1 /// TPSB2 (11721975_s_at) / Fold change /veh TPSAB1 /// TPSB2 (11721975_s_at) / RFU GSTM3 (11746129_a_at) / Fold change /veh GSTM3 (11746129_a_at) / RFU IL23R (11737362_x_at) / Fold change /veh IL23R (11737362_x_at) / RFU TMEM51 (11727254_a_at) / Fold change /veh TMEM51 (11727254_a_at) / RFU PIWIL2 (11732686_x_at) / Fold change /veh PIWIL2 (11732686_x_at) / RFU ORM1 (11744905_x_at) / Fold change /veh ORM1 (11744905_x_at) / RFU CCDC152 (11743942_at) / Fold change /veh CCDC152 (11743942_at) / RFU ECM1 (11717891_a_at) / Fold change /veh ECM1 (11717891_a_at) / RFU IL23R (11748794_a_at) / Fold change /veh IL23R (11748794_a_at) / RFU TNFAIP8L3 (11732012_x_at) / Fold change /veh TNFAIP8L3 (11732012_x_at) / RFU MBOAT4 (11741988_at) / Fold change /veh MBOAT4 (11741988_at) / RFU 11764193_at / Fold change /veh 11764193_at / RFU TMEM53 (11763286_at) / Fold change /veh TMEM53 (11763286_at) / RFU MAGEB2 (11727129_at) / Fold change /veh MAGEB2 (11727129_at) / RFU TMEM200A (11744735_a_at) / Fold change /veh TMEM200A (11744735_a_at) / RFU CCDC152 (11751479_a_at) / Fold change /veh CCDC152 (11751479_a_at) / RFU FAM211A (11726209_a_at) / Fold change /veh FAM211A (11726209_a_at) / RFU RGS16 (11746705_a_at) / Fold change /veh RGS16 (11746705_a_at) / RFU VCAN (11755009_s_at) / Fold change /veh VCAN (11755009_s_at) / RFU RHOB (11743442_s_at) / Fold change /veh RHOB (11743442_s_at) / RFU RGS16 (11720943_a_at) / Fold change /veh RGS16 (11720943_a_at) / RFU RGS16 (11720944_at) / Fold change /veh RGS16 (11720944_at) / RFU, VPS4B / Fold change vs veh, VPS4B / RFU, CREB1 / Fold change vs veh, CREB1 / RFU, DNAJC13 / Fold change vs veh, DNAJC13 / RFU, GNAQ / Fold change vs veh, GNAQ / RFU, CDK5R1 / Fold change vs veh, CDK5R1 / RFU, ZRANB3 / Fold change vs veh, ZRANB3 / RFU, CUL4A / Fold change vs veh, CUL4A / RFU, CCNY / Fold change vs veh, CCNY / RFU, UFL1 / Fold change vs veh, UFL1 / RFU, COG3 / Fold change vs veh, COG3 / RFU, DIAPH2 / Fold change vs veh, DIAPH2 / RFU, SKA2 / Fold change vs veh, SKA2 / RFU, AFF3 / Fold change vs veh, AFF3 / RFU, LMF1 / Fold change vs veh, LMF1 / RFU, IPO11 / Fold change vs veh, IPO11 / RFU, DFFB / Fold change vs veh, DFFB / RFU, FOXP1 / Fold change vs veh, FOXP1 / RFU, CARD8 / Fold change vs veh, CARD8 / RFU, STRN3 / Fold change vs veh, STRN3 / RFU, ADK / Fold change vs veh, ADK / RFU, RASSF2 / Fold change vs veh, RASSF2 / RFU, WIPF1 / Fold change vs veh, WIPF1 / RFU, LARP1B / Fold change vs veh, LARP1B / RFU, RASA1 / Fold change vs veh, RASA1 / RFU, RB1 / Fold change vs veh, RB1 / RFU, PPFIA1 / Fold change vs veh, PPFIA1 / RFU, MAT2A / Fold change vs veh, MAT2A / RFU, CCT5 / Fold change vs veh, CCT5 / RFU, WDR92 / Fold change vs veh, WDR92 / RFU, CUX1 / Fold change vs veh, CUX1 / RFU, TTC7A / Fold change vs veh, TTC7A / RFU, TMEM135 / Fold change vs veh, TMEM135 / RFU, DEPTOR / Fold change vs veh, DEPTOR / RFU, CPM / Fold change vs veh, CPM / RFU, DNAJB6 / Fold change vs veh, DNAJB6 / RFU, CACNA2D3 / Fold change vs veh, CACNA2D3 / RFU, DTX4 / Fold change vs veh, DTX4 / RFU, TFCP2 / Fold change vs veh, TFCP2 / RFU, GMCL1 /// GMCL1P1 / Fold change vs veh, GMCL1 /// GMCL1P1 / RFU, AEBP2 / Fold change vs veh, AEBP2 / RFU, SNHG1 /// SNORD22 /// SNORD25 /// SNORD26 /// SNORD27 /// SNORD28 /// SNORD29 /// SNORD31 / Fold change vs veh, SNHG1 /// SNORD22 /// SNORD25 /// SNORD26 /// SNORD27 /// SNORD28 /// SNORD29 /// SNORD31 / Fold change (Aza/veh), C12orf56 (ProbeSet 11735607_a_at) / Fold change (ACY-1035/veh), C12orf56 (ProbeSet 11735607_a_at) / Fold change (Aza/veh), FGFR1OP (ProbeSet 11751329_s_at) / Fold change (ACY-1035/veh), FGFR1OP (ProbeSet 11751329_s_at) / Fold change (Aza/veh), VPS36 (ProbeSet 11739960_a_at) / Fold change (ACY-1035/veh), VPS36 (ProbeSet 11739960_a_at) / RFU SYPL1 (11715823_x_at) / Fold change /veh SYPL1 (11715823_x_at) / RFU IGFBP7 (11715501_s_at) / Fold change /veh IGFBP7 (11715501_s_at) / RFU REEP3 (11722064_at) / Fold change /veh REEP3 (11722064_at) / RFU IGLL1 (11728026_x_at) / Fold change /veh IGLL1 (11728026_x_at): dose or concentration left out as unconfirmed
Settings: ProbeSet 11755159_a_at; LIST D

Nc1ncn([C@@H]2O[C@H](CO)[C@@H](O)[C@H]2O)c(=O)n1 [azacitidine]
RFU, COG3: 74.05 RFU

Source: PMC5218480 (PLoS ONE, 2017)
